The values that follow come from patent US7109014B1, “Diglycosidase isolated from microorganisms” (Amano Enzyme Inc., priority 1998, dated 2006).

Where a name gives a salt, the structure may show the parent alone. Read-outs that look alike come from different tables or passages of the source.

The test system of series [1] is Aspergillus fumigatus IAM 2046. The series can be described thus: Effects of inducers on the production of diglycosidase. The format is cell-based. The settings on record: for activity at 0.1 %: Aspergillus fumigatus, IAM2046, 144 h, read-out: Inducing ability (%). The method, then:
Measurement of the activity was carried out using an automatic chemical analyzer (TBA-30R, manufactured by TOSHIBA CORP.). A 30 μl portion of each enzyme sample was mixed with 200 μl of acetate buffer solution (pH 5.5) containing 2 mM of p-nitrophenyl (pNP) primeveroside as the disaccharide glycoside substrate to carry out the reaction at 40° C. and at a cycle time of 22.5 seconds, for 9.75 minutes, and then the reaction solution was mixed with 250 μl of sodium carbonate to measure absorbance at 412 nm. Measurement of the sample blank was carried out in the same manner using 20 mM acetate buffer (pH 5.5) instead of the substrate solution.
Using Aspergillus fumigatus IAM 2046, effects of inducers on the production of diglycosidase were examined. Aspergillus fumigatus IAM 2046 was cultured for 6 days in a culture medium (2% soybean flour, 0.3% sodium chloride, 0.1% KH2PO4, 0.05% MgSO4.7H2O, 3% soluble starch) supplemented with 0.1% of each of various saccharides, and the diglycosidase activity was measured.

The nature of series [2]: Optimum pH of diglycosidase. The class given is biochemical. Here is the method: Its optimum pH was measured in the following manner. A 400 μl portion of 2 mM pNP-primeveroside solution which had been adjusted to a respective pH value of from pH 2 to 5 with 20 mM secondary citric acid-HCl buffer was incubated at 37° C. for 5 minutes. Next, this was mixed with 90 μl of the enzyme solution to carry out the reaction at 37° C. for 20 minutes. The reaction was stopped by adding 500 μl of 0.5 M sodium carbonate solution, and the activity measurement was carried out by measuring the absorbance at 420 nm.

A short description of series [3]: Optimum temperature of diglycosidase. The format is biochemical. The conditions noted are these: pH 2.5, 20 minutes. Here is the method: Its optimum temperature was measured in the following manner. A 400 μl portion of 2 mM pNP-primeveroside solution prepared using 20 mM disodium citric acid-HCl buffer (pH 2.5) was mixed with 90 μl of the enzyme solution to carry out the reaction at 30 to 65° C. for 20 minutes. The reaction was stopped by adding 500 μl of 0.5 M sodium carbonate solution, and the activity was determined by measuring the absorbance at 420 nm.

Series [4] in a line: Thermal stability of diglycosidase (residual activity). The class given is physicochemical. The settings on record: pH 8, 1 hour, 30 to 55° C. Here is the method:
Thermal stability of the purified preparation was examined by diluting it 100 times with 20 mM glycine NaCl—NaOH buffer (pH 8), treating the dilution at each temperature of from 30 to 55° C. for 1 hour and then measuring the residual activity. As a result, the activity was stable at a temperature of 50° C. or below.

A short description of series [5]: Release of primeverose from pNP-primeveroside by TLC. The class given is biochemical. The conditions noted are these: 0.3 AU purified enzyme, 37° C., 24 hours. Here is the method: Each of the crude enzyme solutions obtained in Examples 1 and 2 was concentrated using an ultrafiltration membrane having a molecular weight cutoff of 6,000. Next, 1 ml of the concentrated solution was mixed with 1 ml of a 5 mg/ml pNP-primeveroside solution which had been prepared using 20 mM phosphate buffer (pH 6.0), and the mixture was incubated at 37° C. Samples were collected 1, 2, 4, 24 and 48 hours thereafter to confirm release of primeverose by a thin layer chromatography (TLC).
A 0.3 AU portion of the purified enzyme solution obtained in Example 6 and the aforementioned pNP-primeveroside were incubated at 37° C. for 24 hours to examine release of disaccharide by TLC. […] Such a spot was not found by the heat-treated purified enzyme solution used as a control.

A short description of series [6]: Release of disaccharide and formation of aroma from eugenyl primeveroside. The class given is biochemical. The settings on record: 0.3 AU purified enzyme, 37° C., 24 hours. The method, then:
eugenyl primeveroside solution adjusted to 5 mg/ml with 20 mM phosphate buffer (pH 6.0), the mixture was incubated at 37° C. for 24 hours and then the formation of aroma was examined by a sensory test (10 panel). […]
[…] […] These were not found in heat-inactivated enzyme solution.

Series [7] is described as follows: Release of disaccharide from pigment glycoside by TLC. The format is biochemical. The conditions noted are these: 5 mg/ml ruberythric acid, 37° C., 24 hours. Here is the method: Release of disaccharide was examined using a disaccharide glycoside, ruberythric acid, as the substrate. Ruberythric acid was prepared by adsorbing a water extract of Rubia tinctorum L. root powder for staining use (available from Tanaka Senshoku Ten) to HP-20 column, washing the column with 50% methanol, and then eluting the compound with 100% methanol and evaporating the eluate to dryness using an evaporator. A substrate prepared by dissolving the thus recovered ruberythric acid in a phosphate buffer to a concentration of 5 mg/ml was mixed with the crude enzyme solution (0.3 AU) shown in Example 4 or the purified enzyme solution shown in Example 6 and incubated at 37° C. for 24 hours, and then the reaction solution was analyzed by TLC.

Series [8] is described as follows: Sugar transfer in disaccharide unit by diglycosidase. The format is biochemical. The conditions noted are these: 55° C., 6 hours. Here is the method:
The purified enzyme of Example 6 was diluted with deionized water to adjust the activity to E1.0 AU/ml, and acetonitrile ([…]) containing 2.5% phenethyl alcohol, 20 mM acetate buffer (250 μl) containing 10% primeverose and the enzyme solution (50 μl) were mixed to carry out the reaction at 55° C. The reaction was completed after 6 hours and the reaction solution was mixed with 500 μl of diethyl ether, stirred and then centrifuged to remove free aglycon which was transferred into the ether layer. By applying the water layer to a Diaion HP-20 column and passing purified water through the column, free primeverose was removed. The disaccharide glycoside adsorbed to the resin was eluted with methanol and concentrated to dryness. This was dissolved in 100 μl of deionized water, and a 20 μl portion thereof was spotted on a TLC plate to detect the reaction product (the developing solvent was ethyl acetate:acetic acid:deionized water=3:1:1, acetic acid:methanol=1:4 solution was sprayed thereto after the development and allowed to stand at 105° C. for 10 minutes).

Where [9] appears, read: medium supplemented with 0.1% of saccharide, cultured 6 days, diglycosidase activity, not added = 100.

`OC[C@H]1O[C@H](O[C@H]2[C@H](O)[C@@H](O)C(O)O[C@@H]2CO)[C@H](O)[C@@H](O)[C@@H]1O` (mixture of isomers) [Maltose]: the activity at 0.1 % in series [1] (setting [9]) was determined as 136%.

As for `OC[C@@H](O)C(O)[C@H](O)CO` [Arabitol], the “Inducing ability (%)” value in series [1] (setting [9]) came to 112%.

For the molecule `O=C(CO)[C@@H](O)[C@H](O)[C@H](O)CO` [Fructose], the activity at 0.1 % in series [1] worked out at 143%.

Consider `OC[C@@H](O)[C@H](O)[C@H](O)[C@@H](O)CO` [Galactitol], for which the activity at 0.1 % in series [1] (setting [9]) is 142%.

On to `O=C[C@H](O)[C@@H](O)[C@@H](O)[C@H](O)CO` [Galactose], for which the activity at 0.1 % in series [1] (setting [9]) is 125%.

On to `N[C@H]1C(O)O[C@H](CO)[C@@H](O)[C@@H]1O` (some centres unmarked) [Glucosamine hydrochloride], for which the activity at 0.1 % in series [1] (setting [9]) is 157%.

Turning to `OC[C@H]1O[C@H](OC[C@H]2OC(O)[C@H](O)[C@@H](O)[C@@H]2O)[C@H](O)[C@@H](O)[C@@H]1O` (some centres unmarked) [Isomaltose], in series [1] (setting [9]), the “Inducing ability (%)” value was 145%.

In the case of `OC[C@@H](O)[C@@H](O[C@H]1O[C@H](CO)[C@@H](O)[C@H](O)[C@H]1O)[C@H](O)[C@@H](O)CO` [Maltitol], in series [1] (setting [9]), the “Inducing ability (%)” value is listed as 142%.

Consider `C[C@H](O)[C@H](O)[C@@H](O)[C@@H](O)C=O` [Rhamnose], for which the activity at 0.1 % in series [1] (setting [9]) came to 129%.

Turning to `OC[C@H]1O[C@@](CO)(O[C@H]2O[C@H](CO)[C@@H](O)[C@H](O)[C@H]2O)[C@@H](O)[C@@H]1O` [Sucrose], in series [1] (setting [9]), the activity at 0.1 % was found to be 116%.

On to `OC[C@H]1O[C@H](O[C@H]2O[C@H](CO)[C@@H](O)[C@H](O)[C@H]2O)[C@H](O)[C@@H](O)[C@@H]1O` [Trehalose], for which, in series [1] (setting [9]), the activity at 0.1 % was found to be 113%.

On to Gentiobiose, for which the “inducing ability / producing ability of diglycosidase (in words)” value in series [1] (0.1% saccharide, 6 days) is listed as “markedly high inducing ability”. Moreover, the “Inducing ability (%)” value in series [1] (setting [9]) is 211%.

Take Maltotriose: the “Inducing ability (%)” value in series [1] (setting [9]) amounted to 171%.

B1: diglycosidase derived from Aspergillus fumigatus: purified enzyme preparation of diglycosidase from Aspergillus fumigatus IAM 2046, single band of 47 kDa, SEQ ID NO: 8 (protein, listed as Aspergillus fumigatus)
chain: AASASAYCSNSAGNYKLSSIAAPVQGAGNPGSESTWQLTVDDTSSGHKQTIVGFGAAVTDATVTSFNTLSASVLQDLLNKLMTPAGANFALMRHTIGASDLSGDPAYTYDDNGGKADPSLSGFNLGDRGTAMAKMLATMKSLQPNLKILGSPWSAPGWMKLNGVLDGNTNNNNLNDGYLTSGGTGSTGYASQFAQYFVKYIQAYKNLGAHVDAITIQNEPLFSSAGYPTMYVYDYESAQLIQNYIGPALASAGLDTEIWAYDHNTDVPSYPQTVLNQAGQYVKSVAWHCYAPNVDWTVLSQFHNTNPGVKQYMTECWTPASGAWHQAADFTMGPLQNWASGVAAWTLGTNAQDGPHLSTGGCATCQGLVTINNGGYTLNTAYYMMAQFSKFMPPGAIVLNGSGSYTYSGGGGIQSVASLNPDGTRTVVIENTFGNDVYVTVTMKSGQKWSGNAPSQSVTTWVLPSA
Turning to B1, the “activity at pH 3 (in words)” value in series [2] is “sufficient activity”. Also, in series [3], the “activity at 60° C.” value was 80%. Moreover, the “temperature at which activity is stable” value in series [4] was not above 50 °C. The “release of disaccharide (TLC)” value in series [5] is recorded as “release of a disaccharide was confirmed”. Further, in series [6], the “release of disaccharide (TLC)” value is “release of a disaccharide was confirmed”, the “release of eugenol (gas chromatography)” value is listed as “confirmed” and the “release of eugenol (sensory test)” value is on record as “release of eugenol was also confirmed”. Also, the “release of primeverose and alizarin (TLC)” value in series [7] was “release of the disaccharide primeverose and the aglycon alizarin was observed”. In addition, the “transfer of disaccharide to phenethyl alcohol (TLC)” value in series [8] was “transfers the diglycoside to phenethyl alcohol and thereby forms a disaccharide glycoside”.
